Measured values reported in US8193175B2, “Ruthenium complexes for treating cancers” (Universite de Strasbourg, priority 2004, dated 2012).
pIC50: −log10 of the molar value. “Also recorded” adds a separate entry of the source.

What was measured:
MOLT-4 = experiment: Proliferation test (UptiBlue) on MOLT-4; format: cell-based, human; settings: p53 expressing line; read-out: IC50, proliferation of MOLT-4 cells
Procedure: The products are tested on different cell lines. The cells used are RDM4 from a murine T lymphoma and a MOLT-4 line originating from an acute lymphoblastic leukemia. These cancer lines both express the p53 protein, unlike the HL-60 cells from a human promyelocytary leukemia where, following deletion of its gene, p53 is absent.
All of these cells are cultivated in RPMI 1640-Glutamax, supplemented by 10% calf foetal serum heat inactivated at 56° C. for 30 minutes, 1 mM sodium pyruvate, 1 mM non-essential amino acids and 50 μg/mL gentamycine (Life Technologies, Cergy Pontoise, France). The cultures are kept in an incubator at 37° C. with a moisture saturated atmosphere, with 5% CO2.
This test uses the UptiBlue reagent (Interchim, Montluçon, France), metabolised by the living cells. The cells are incubated on plates with 96 wells with 10^4 cells/well (200 μL) with the product and cultivated for 72 hours. Then, 20 μL UptiBlue are added to each well. After 3 hours incubation, the fluorescence of the samples contained in the plates is measured at 590 nm (excitation at 560 nm), using a Fluorolite 1000 microplate reader (Dynex technologies, Issy-Les-Moulineaux, France). […]

A172 glioblastoma cells = experiment: Nucleus morphology and caspase 3 activation in A172 cells; format: cell-based, human; settings: cisplatinum 15 μM, CDR6 15 μM, CDR9 15 μM
Excerpt: FIG. 2: A—The A172 cells were cultivated on glass slides. […] The cells were then fixed in 4% paraformaldehyde, permeabilised with 0.1% NP40 and marked with Hoechst dye (blue) and the anti-p20 antibody (active fragment of caspase 3, in red). The cells were then observed under the fluorescence microscope. B—Graphic representation of the number of cells with an apoptotic, fragmented or condensed nucleus. The bars are an average of two slides from one experiment representative of 3 carried out. C—In parallel, proteic extracts were prepared from cells treated with various drugs (cisplatinum 15 μM; CDR225 μM; CDR615 μM; CDR915 μM) and following denaturation the extracts were deposited on a !0% SDS-Page gel. After migration, the proteins were transferred onto nitrocellulose (Biorad, 0.2 μm) and the p20 fragment of the caspase 3 was detected by Western blot with an anti-p20 antibody (1/1000, R&D System).
The first step towards characterising the anticancerous effects of the compounds derived from ruthenium consists of testing their activity on tumoral lines kept in culture and comparing these effects on lines which have different characteristics as regards resistance to the anticancer treatments. Two lines of human glioblastomas (A172, HS683) and two lines of neuroblastomas (N2A and SH5Y) were used in order to test the cytostatic effects of the compounds according to the invention. Cisplatinum was chosen as the cytotoxic comparison agent. In a first approach, an MTT test was used to measure the activity of a mitochondrial enzyme, and this gives an estimate of the number of cells. Then, the cytotoxic effects of the compounds according to the invention were characterised in greater detail by analysing the morphology of the nucleus and the activation of caspase 3—two markers of cell apoptosis.

[1] = Preliminary toxicity experiment on healthy SWISS mice; format: in vivo; settings: small number of healthy SWISS mice
[2] = tested on: U-87 cells (a human glioblastoma); experiment: In vivo test, U-87 cells grafted onto nude/nude SWISS mice; settings: 18.5 mg/Kg intraperitoneally per injection, accumulated dose 185 mg/Kg
Procedure: The animals are manipulated under a laminar flow hood. Ten nude/nude (athymic) eleven week old SWISS mice were grafted subcutaneously with U-87 cells (a human glioblastoma) on the left thigh. After 7 days, the tumours become apparent and treatment commences. The animals are separated into two groups of five, 5 mice are thus treated with D-PBS (control mice) and the 5 others with RDC-11 (treated mice).
For the treated mice, 2 mg of RDC-11 placed in solution in 4 mL hot D-PBS for each injection. 0.5 mL of this solution cooled down to ambient temperature is administered intraperitoneally to each mouse. For the control mice, 0.5 mL D-PBS at ambient temperature is administered in the same way.
The dose of RDC-11 injected is 18.5 mg/Kg mouse. The accumulated dose is therefore 185 mg/Kg.
The development of the apparent tumours was followed by measuring them with calipers, by weighing the mice and by scanning one mouse from each batch with a CT-scan after injecting a contrast product (Fenestra VC). The mice were individualised by a mark on the ear.
The volume of the apparent tumours was calculated according to the formula:
V=(4/3)*π*(L/2)*(I/2)^2 where L is the length and I the width measured.

N.N.[Cl][Pt][Cl] [Cisplatinum, reference compound]
pIC50 (MOLT-4): > 6.30
proteic levels of the active fragment of caspase 3 (Western blot) (A172 glioblastoma cells): increasing the proteic levels of the active fragment of caspase 3

[Ru(C6H4-2-C5H4N)(phen)(NCMe)2]PF6 [Compound 11]
apparent toxicity [1]: lack of apparent toxicity
toxicity in grafted mice [2]: without any toxicity
weight and volume of the tumours / tumoral growth ([2]; listed as RDC-11): less in relation to the controls; also recorded: changes the nature of tumoral growth
